From US8278464B2, “Insecticides” (Syngenta Crop Protection LLC, priority 2006, dated 2012)
One block for each compound: values may come before it.

Tests used:
[1] = test system: Myzus persicae (Green Peach Aphid); assay: Activity against Myzus persicae, systemic, pea seedlings (Example B6); assay type: in vivo; settings: 144 h, 6 days after introduction
Description: Roots of pea seedlings, infested with an aphid population of mixed ages, are placed directly in the test solutions. 6 days after introduction, samples are checked for mortality and special effects on the plant.

[2] = test system: Spodoptera littoralis (Egyptian Cotton Leafworm); assay: Activity against Spodoptera littoralis, cotton leaf discs sprayed (Example B1); assay type: in vivo; settings: foliar, 72 h, L1 larvae, checked 3 days after treatment
Description: Cotton leaf discs are placed on agar in a 24-well microtiter plate and sprayed with test solutions. After drying, the leaf discs are infested with 5 L1 larvae. The samples are checked for mortality, repellent effect, feeding behaviour, and growth regulation 3 days after treatment (DAT).

[3] = test system: Heliothis virescens (Tobacco Budworm); assay: Activity against Heliothis virescens, eggs on artificial diet (Example B2); assay type: in vivo; settings: 96 h, eggs 0-24 h old, incubation 4 days
Protocol: Eggs (0-24 h old) are placed in 24-well microtiter plate on artificial diet and treated with test solutions by pipetting. After an incubation period of 4 days, samples are checked for egg mortality, larval mortality, and growth regulation.

[4] = test system: Plutella xylostella (Diamond Back Moth); assay: Activity against Plutella xylostella, artificial diet MTP (Example B3); assay type: in vivo; settings: 120 h, L2 larvae, incubation 5 days
Protocol: (§1) 24-well microtiter plate (MTP) with artificial diet is treated with test solutions by pipetting. After drying, the MTP's are infested with larvae (L2) (10-15 per well). After an incubation period of 5 days, samples are checked for larval mortality, antifeedant and growth regulation. In this test, compounds listed in the Tables above show good activity. In particular compounds T13.1.2, T15.1.1, T15.1.91, T13.1.1, T9.1.2 (diastereomer A), T9.1.2 (diastereomer B), T16.1.1, T17.1.2 (diastereomer A), T17.1.2 (diastereomer B), T16.1.91, T13.1.92, T13.1.361, T13.1.391, T13.1.91, T13.1.6, T13.1.96, T44.1.2, T13.1.8, T13.1.23, T13.1.93, T13.1.113, T13.1.21, T13.1.111 have an activity of over 80% at 400 ppm.

[5] = test system: Thrips tabaci (Onion Thrips); assay: Activity against Thrips tabaci, sunflower leaf discs (Example B7); assay type: in vivo; settings: foliar, 144 h, incubation 6 days
Protocol: Sunflower leaf discs are placed on agar in a 24-well microtiter plate and sprayed with test solutions. After drying, the leaf discs are infested with a thrips population of mixed ages. After an incubation period of 6 days, samples are checked for mortality and special effects (e.g. phytotoxicity).

[6] = test system: Spodoptera littoralis (Cotton Leafworm); assay: Systemic insecticide test for Spodoptera littoralis, maize seedlings, 12.5 ppm (Example B9); assay type: in vivo; settings: 96 h, 12.5 ppm in water, systemic via maize seedlings, larvae incubated four days
Protocol: Four day old maize seedlings (Zea mais, variety Stoneville) are placed individual in vials containing 24 ml water into which the chemical is diluted at 12.5 ppm. Seedlings are allowed to grow for six days. Subsequently leaves are cut and placed in a Petri dish (5 cm diameter), inoculated with twelve to fifteen 1st instar S. littoralis larvae and incubated for four days in a growth chamber (25° C., 50% r.h., 18:6 L:D photo period). Number of alive insects are counted and percentage of dead calculated. Tests were conducted with one replicate.

[7] = test system: Diabrotica balteata (Corn Root Worm); assay: Activity against Diabrotica balteata, artificial diet MTP (Example B4); assay type: in vivo; settings: 120 h, L2 larvae, incubation 5 days
Protocol: as §1, with “(6-10” for “(10-15”, “B),” for “B), T16.1.1,”, “T13.1.92,” for “T13.1.92, T13.1.361, T13.1.391,”, “T13.1.23,” for “T13.1.23, T13.1.93,”

[8] = test system: Myzus persicae (Green Peach Aphid); assay: Activity against Myzus persicae, contact, sunflower leaf discs (Example B5); assay type: in vivo; settings: foliar, 144 h, 6 DAT
Protocol: Sunflower leaf discs are placed on agar in a 24-well microtiter plate and sprayed with test solutions. After drying, the leaf discs are infested with an aphid population of mixed ages. After an incubation period of 6 DAT, samples are checked for mortality and special effects (e.g. phytotoxicity).

Structure (SMILES): CCC1(NC(=O)c2cc(C#N)cc(C)c2NC(=O)c2cc(C(F)(F)F)nn2-c2ncccc2Cl)CS(=O)(=O)C1 [T13.1.93]
pest or weed control at 400 ppm [1]: > 80%
pest or weed control at 400 ppm [2]: > 80%
pest or weed control at 400 ppm [3]: > 80%
pest or weed control at 400 ppm [4]: > 80%
pest or weed control at 400 ppm [5]: > 80%

Structure (SMILES): Cc1cc(C#N)cc(C(=O)NC2(C)C[S+]([O-])C2)c1NC(=O)c1cc(Br)nn1-c1ncccc1Cl (stereo not shown)
melting point: 244 to 249 °C

Structure (SMILES): Cc1cccc(C(=O)NC2CS(=O)(=O)C2)c1NC(=O)c1cc(C(F)(F)F)nn1-c1ncccc1Cl [T13.1.361]
pest or weed control at 400 ppm [2]: > 80%
pest or weed control at 400 ppm [3]: > 80%
pest or weed control at 400 ppm [4]: > 80%
pest or weed control at 12.5 ppm [6]: > 80%

Structure (SMILES): Cc1cc(C#N)cc(C(=O)NC2CS(=O)(=O)C2)c1NC(=O)c1cc(C(F)F)nn1-c1ncccc1Cl
melting point: 158 to 160 °C

Structure (SMILES): Cc1cc(C#N)cc(C(=O)NC2CS(=O)(=O)C2)c1NC(=O)c1cc(OCC(F)(F)F)nn1-c1ncccc1Cl [T13.1.111]
pest or weed control at 400 ppm [2]: > 80%
pest or weed control at 400 ppm [3]: > 80%
pest or weed control at 400 ppm [4]: > 80%
pest or weed control at 400 ppm [7]: > 80%
pest or weed control at 400 ppm [5]: > 80%

Structure (SMILES): CCC1(NC(=O)c2cc(C#N)cc(C)c2NC(=O)c2cc(OCC(F)(F)F)nn2-c2ncccc2Cl)CS(=O)(=O)C1 [T13.1.113]
pest or weed control at 400 ppm [1]: > 80%
pest or weed control at 400 ppm [2]: > 80%
pest or weed control at 400 ppm [3]: > 80%
pest or weed control at 400 ppm [4]: > 80%
pest or weed control at 400 ppm [7]: > 80%
pest or weed control at 12.5 ppm [6]: > 80%
pest or weed control at 400 ppm [5]: > 80%

Structure (SMILES): Cc1cc(C#N)cc(C(=O)NC2CS(=O)(=O)C2(C)C)c1NC(=O)c1cc(C(F)(F)F)nn1-c1ncccc1Cl (stereo not shown) [T15.1.91]
pest or weed control at 400 ppm [8]: > 80%
pest or weed control at 400 ppm [2]: > 80%
pest or weed control at 400 ppm [3]: > 80%
pest or weed control at 400 ppm [4]: > 80%
pest or weed control at 400 ppm [7]: > 80%
pest or weed control at 400 ppm [5]: > 80%

Structure (SMILES): Cc1cc(Cl)cc(C(=O)NC2CS(=O)(=O)C2)c1NC(=O)c1cc(Br)nn1-c1ncccc1Cl [T13.1.6]
pest or weed control at 400 ppm [1]: > 80%
pest or weed control at 400 ppm [2]: > 80%
pest or weed control at 400 ppm [3]: > 80%
pest or weed control at 400 ppm [4]: > 80%
pest or weed control at 400 ppm [7]: > 80%
pest or weed control at 12.5 ppm [6]: > 80%
pest or weed control at 400 ppm [5]: > 80%

Structure (SMILES): Cc1cc(Cl)cc(C(=O)NC2CS(=O)(=O)C2)c1NC(=O)c1cc(C(F)(F)F)nn1-c1ncccc1Cl [T13.1.1]
pest or weed control at 400 ppm [1]: > 80%
pest or weed control at 400 ppm [2]: > 80%
pest or weed control at 400 ppm [3]: > 80%
pest or weed control at 400 ppm [4]: > 80%
pest or weed control at 400 ppm [7]: > 80%
pest or weed control at 12.5 ppm [6]: > 80%
pest or weed control at 400 ppm [5]: > 80%

Structure (SMILES): Cc1cc(C#N)cc(C(=O)NC2C[S+]([O-])C2)c1NC(=O)c1cc(C(F)F)nn1-c1ncccc1Cl (stereo not shown)
melting point: 230 to 233 °C

Structure (SMILES): CCC1(NC(=O)c2cc(Cl)cc(C)c2NC(=O)c2cc(OCC(F)(F)F)nn2-c2ncccc2Cl)CS(=O)(=O)C1 [T13.1.23]
pest or weed control at 400 ppm [2]: > 80%
pest or weed control at 400 ppm [3]: > 80%
pest or weed control at 400 ppm [4]: > 80%
pest or weed control at 400 ppm [7]: > 80%
pest or weed control at 12.5 ppm [6]: > 80%

Structure (SMILES): Cc1cc(C#N)cc(C(=O)NC2CS(=O)(=O)C2)c1NC(=O)c1cc(C(F)(F)F)nn1-c1ncccc1Cl [T13.1.91]
pest or weed control at 400 ppm [8]: > 80%
pest or weed control at 400 ppm [2]: > 80%
pest or weed control at 400 ppm [3]: > 80%
pest or weed control at 400 ppm [4]: > 80%
pest or weed control at 400 ppm [7]: > 80%
pest or weed control at 12.5 ppm [6]: > 80%
pest or weed control at 400 ppm [5]: > 80%

Structure (SMILES): Cc1cc(Cl)cc(C(=O)NC2C(C)(C)S(=O)(=O)C2(C)C)c1NC(=O)c1cc(C(F)(F)F)nn1-c1ncccc1Cl [T16.1.1]
pest or weed control at 400 ppm [2]: > 80%
pest or weed control at 400 ppm [3]: > 80%
pest or weed control at 400 ppm [4]: > 80%

Structure (SMILES): Cc1cc(Cl)cc(C(=O)NC2(C)CN(Cc3ccccc3)C2)c1NC(=O)c1cc(C(F)(F)F)nn1-c1ncccc1Cl [T44.1.2, 2-(3-chloro-pyridin-2-yl)-5-trifluoromethyl-2H-pyrazole-3-carboxylic acid [4-chloro-2-methyl-6-(3-methyl-N-benzylazetidine-3-ylcarbamoyl)-phenyl]-amide]
pest or weed control at 400 ppm [2]: > 80%
pest or weed control at 400 ppm [3]: > 80%
pest or weed control at 400 ppm [4]: > 80%
pest or weed control at 400 ppm [7]: > 80%
pest or weed control at 12.5 ppm [6]: > 80%
pest or weed control at 400 ppm [5]: > 80%

Structure (SMILES): Cc1cc(Cl)cc(C(=O)NC2CS(=O)(=O)C2(C)C)c1NC(=O)c1cc(C(F)(F)F)nn1-c1ncccc1Cl (stereo not shown) [T15.1.1]
pest or weed control at 400 ppm [2]: > 80%
pest or weed control at 400 ppm [3]: > 80%
pest or weed control at 400 ppm [4]: > 80%
pest or weed control at 400 ppm [7]: > 80%
pest or weed control at 12.5 ppm [6]: > 80%

Structure (SMILES): Cc1cc(C#N)cc(C(=O)NC2(C)C[S+]([O-])C2)c1NC(=O)c1cc(C(F)F)nn1-c1ncccc1Cl (stereo not shown)
melting point: 235 to 237 °C

Structure (SMILES): CCC1(NC(=O)c2cc(Cl)cc(C)c2NC(=O)c2cc(Br)nn2-c2ncccc2Cl)CS(=O)(=O)C1 [T13.1.8]
pest or weed control at 400 ppm [2]: > 80%
pest or weed control at 400 ppm [3]: > 80%
pest or weed control at 400 ppm [4]: > 80%
pest or weed control at 400 ppm [7]: > 80%
pest or weed control at 12.5 ppm [6]: > 80%

Structure (SMILES): Cc1cc(C#N)cc(C(=O)NC2C(C)(C)S(=O)(=O)C2(C)C)c1NC(=O)c1cc(C(F)(F)F)nn1-c1ncccc1Cl [T16.1.91]
pest or weed control at 400 ppm [2]: > 80%
pest or weed control at 400 ppm [3]: > 80%
pest or weed control at 400 ppm [4]: > 80%
pest or weed control at 400 ppm [7]: > 80%
pest or weed control at 400 ppm [5]: > 80%

Next, values leading:

melting point: 170 to 173 °C
Structure (SMILES): Cc1cc(Cl)cc(C(=O)NC2(C)CS(=O)(=O)C2)c1NC(=O)c1cc(C(F)F)nn1-c1ncccc1Cl

melting point: 171 to 173 °C
Structure (SMILES): Cc1cc(Cl)cc(C(=O)NC2C[S+]([O-])C2)c1NC(=O)c1cc(C(F)F)nn1-c1ncccc1Cl (stereo not shown)

melting point: 151 to 155 °C
Structure (SMILES): Cc1cc(Cl)cc(C(=O)NC2CS(=O)(=O)C2)c1NC(=O)c1cc(C(F)F)nn1-c1ncccc1Cl

melting point: 234 to 236 °C
Structure (SMILES): CCC1(NC(=O)c2cc(Cl)cc(C)c2NC(=O)c2cc(C(F)(F)F)nn2-c2ncccc2Cl)CS(=O)(=O)C1

melting point: 216 to 219 °C
Structure (SMILES): Cc1cc(C#N)cc(C(=O)NC2(C)CS(=O)(=O)C2)c1NC(=O)c1cc(OCC(F)(F)F)nn1-c1ncccc1Cl

melting point: > 250 °C
Structure (SMILES): Cc1cc(Cl)cc(C(=O)NC2(C)CS(=O)(=O)C2)c1NC(=O)c1cc(OCC(F)(F)F)nn1-c1ncccc1Cl

melting point: 244 to 247 °C
Structure (SMILES): Cc1cc(Cl)cc(C(=O)NC2(C)C[S+]([O-])C2)c1NC(=O)c1cc(Br)nn1-c1ncccc1Cl (stereo not shown)

melting point: 238 to 241 °C
Structure (SMILES): Cc1cc(C#N)cc(C(=O)NC2(C)CS(=O)(=O)C2)c1NC(=O)c1cc(C(F)F)nn1-c1ncccc1Cl

melting point: 220 to 222 °C
Structure (SMILES): Cc1cc(Cl)cc(C(=O)NC2(C)C[S+]([O-])C2)c1NC(=O)c1cc(OCC(F)(F)F)nn1-c1ncccc1Cl (stereo not shown)

melting point: 223 to 225 °C
Structure (SMILES): Cc1cc(C#N)cc(C(=O)NC2(C)C[S+]([O-])C2)c1NC(=O)c1cc(OCC(F)(F)F)nn1-c1ncccc1Cl (stereo not shown)

melting point: 169 to 173 °C
Structure (SMILES): Cc1cc(Cl)cc(C(=O)NC2(C)C[S+]([O-])C2)c1NC(=O)c1cc(C(F)F)nn1-c1ncccc1Cl (stereo not shown)

melting point: 191 to 193 °C
Structure (SMILES): Cc1cc(Cl)cc(C(=O)NC2(C)CS(=O)(=O)C2)c1NC(=O)c1cc(Br)nn1-c1ncccc1Cl

melting point: 241 to 244 °C
Structure (SMILES): Cc1cc(Cl)cc(C(=O)NC2C[S+]([O-])C2)c1NC(=O)c1cc(C(F)(F)F)nn1-c1ncccc1Cl (single isomer, unassigned)
